The text below walks through data of US9056843B2, “Trifluoromethyl-oxadiazole derivatives and their use in the treatment of disease” (NOVARTIS AG, priority 2011, dated 2015).

Assay type in all cases: biochemical
The target in one experiment is Human recombinant HDAC4 (Homo sapiens (Human), UniProt P56524). As to the kind of experiment: Test 2: HDAC4 assay (fluorogenic substrate, 5 μM acetyl-Gly-Ala-Lys(ε-trifluoroacetyl)-AMC). As to conditions: Test 2 (values without asterisk). Summed up: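 After the reaction, bovine trypsin (300 nM solution) was added for 15 min at RT to develop the signal; fluorescence read at 360/450 nm. No-enzyme background subtracted; IC50 from 4-parameter logistic fit of dose-response curves.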
Sequence of Human recombinant HDAC4 (P56524 2-1084): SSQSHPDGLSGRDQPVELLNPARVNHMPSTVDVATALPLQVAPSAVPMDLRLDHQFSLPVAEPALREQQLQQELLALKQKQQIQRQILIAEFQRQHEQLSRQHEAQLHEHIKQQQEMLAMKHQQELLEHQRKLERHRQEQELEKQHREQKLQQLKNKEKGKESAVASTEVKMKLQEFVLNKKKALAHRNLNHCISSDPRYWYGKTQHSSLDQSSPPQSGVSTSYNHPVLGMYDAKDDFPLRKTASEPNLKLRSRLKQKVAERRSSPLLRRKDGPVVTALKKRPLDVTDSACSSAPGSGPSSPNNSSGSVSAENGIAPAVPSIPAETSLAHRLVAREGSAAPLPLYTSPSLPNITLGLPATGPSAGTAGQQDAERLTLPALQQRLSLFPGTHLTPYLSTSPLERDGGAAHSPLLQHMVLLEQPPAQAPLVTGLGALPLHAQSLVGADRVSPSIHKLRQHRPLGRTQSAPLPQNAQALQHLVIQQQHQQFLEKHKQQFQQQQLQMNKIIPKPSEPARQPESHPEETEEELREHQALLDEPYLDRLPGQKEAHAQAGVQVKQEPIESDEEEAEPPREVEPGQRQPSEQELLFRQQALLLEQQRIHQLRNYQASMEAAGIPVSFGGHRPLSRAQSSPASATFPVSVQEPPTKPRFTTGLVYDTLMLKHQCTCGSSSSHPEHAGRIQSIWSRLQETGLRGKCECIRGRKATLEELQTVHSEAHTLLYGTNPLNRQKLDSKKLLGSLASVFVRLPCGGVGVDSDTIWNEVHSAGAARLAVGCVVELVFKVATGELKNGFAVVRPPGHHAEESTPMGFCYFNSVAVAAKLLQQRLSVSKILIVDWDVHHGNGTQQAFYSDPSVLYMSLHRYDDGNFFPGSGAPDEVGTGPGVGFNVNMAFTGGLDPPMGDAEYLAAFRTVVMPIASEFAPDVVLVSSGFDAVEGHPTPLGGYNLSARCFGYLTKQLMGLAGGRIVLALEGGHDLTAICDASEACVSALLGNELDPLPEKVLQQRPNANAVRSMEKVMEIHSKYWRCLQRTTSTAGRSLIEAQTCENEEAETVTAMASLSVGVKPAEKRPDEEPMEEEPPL

Experiment [1] addresses Human recombinant full length HDAC1 (Homo sapiens (Human), UniProt Q13547). Description: Test 3: HDAC1 assay. The following applies: substrate 5 μM acetyl-Gly-Ala-Lys(acetyl)-AMC. In a few lines: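 Baculovirus-expressed full-length human HDAC1 with 5 μM acetyl-Gly-Ala-Lys(acetyl)-AMC substrate, developed with trypsin 15 min at room temperature.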
Experiment [2] has as its target Human recombinant full length HDAC6 (Homo sapiens (Human), UniProt Q9UBN7). As to the kind of experiment: Test 4: HDAC6 assay. As to conditions: Test 4; substrate 5 μM acetyl-Gly-Ala-Lys(acetyl)-AMC. In a few lines:
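Baculovirus-expressed full-length recombinant human HDAC6 with 5 μM acetyl-Gly-Ala-Lys(acetyl)-AMC substrate, developed with trypsin 15 min at room temperature.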

Sequence of Human recombinant full length HDAC6 (Q9UBN7 whole entry): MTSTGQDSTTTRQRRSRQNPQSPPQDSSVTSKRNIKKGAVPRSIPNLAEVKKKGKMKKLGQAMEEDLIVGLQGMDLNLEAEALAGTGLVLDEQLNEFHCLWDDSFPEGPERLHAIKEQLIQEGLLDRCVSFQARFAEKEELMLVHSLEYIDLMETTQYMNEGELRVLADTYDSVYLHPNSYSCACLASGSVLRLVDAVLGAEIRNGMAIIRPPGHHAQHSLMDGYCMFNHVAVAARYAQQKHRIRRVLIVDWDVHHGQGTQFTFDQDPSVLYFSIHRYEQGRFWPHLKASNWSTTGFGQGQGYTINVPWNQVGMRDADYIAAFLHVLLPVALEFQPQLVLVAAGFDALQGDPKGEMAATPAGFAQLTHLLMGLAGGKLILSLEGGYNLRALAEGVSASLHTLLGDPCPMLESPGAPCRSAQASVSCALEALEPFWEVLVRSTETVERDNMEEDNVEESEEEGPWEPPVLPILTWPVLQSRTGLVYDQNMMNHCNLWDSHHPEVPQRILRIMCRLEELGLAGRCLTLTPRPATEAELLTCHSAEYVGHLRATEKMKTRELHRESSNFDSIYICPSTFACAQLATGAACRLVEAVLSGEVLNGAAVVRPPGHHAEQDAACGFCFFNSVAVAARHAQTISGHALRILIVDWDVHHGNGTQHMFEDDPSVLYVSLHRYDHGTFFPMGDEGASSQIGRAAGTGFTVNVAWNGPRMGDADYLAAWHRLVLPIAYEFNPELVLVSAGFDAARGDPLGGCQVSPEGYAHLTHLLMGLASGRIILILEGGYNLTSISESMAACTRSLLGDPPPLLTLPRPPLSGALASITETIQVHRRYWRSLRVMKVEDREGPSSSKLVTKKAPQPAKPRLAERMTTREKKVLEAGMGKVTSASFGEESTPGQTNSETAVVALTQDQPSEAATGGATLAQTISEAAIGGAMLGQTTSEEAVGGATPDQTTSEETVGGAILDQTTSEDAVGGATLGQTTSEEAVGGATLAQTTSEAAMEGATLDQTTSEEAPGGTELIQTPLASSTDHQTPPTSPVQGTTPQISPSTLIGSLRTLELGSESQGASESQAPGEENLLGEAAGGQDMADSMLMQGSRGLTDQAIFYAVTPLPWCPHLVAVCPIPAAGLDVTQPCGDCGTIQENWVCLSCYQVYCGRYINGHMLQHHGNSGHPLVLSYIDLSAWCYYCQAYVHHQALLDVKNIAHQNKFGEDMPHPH
Sequence of Human recombinant full length HDAC1 (Q13547 whole entry): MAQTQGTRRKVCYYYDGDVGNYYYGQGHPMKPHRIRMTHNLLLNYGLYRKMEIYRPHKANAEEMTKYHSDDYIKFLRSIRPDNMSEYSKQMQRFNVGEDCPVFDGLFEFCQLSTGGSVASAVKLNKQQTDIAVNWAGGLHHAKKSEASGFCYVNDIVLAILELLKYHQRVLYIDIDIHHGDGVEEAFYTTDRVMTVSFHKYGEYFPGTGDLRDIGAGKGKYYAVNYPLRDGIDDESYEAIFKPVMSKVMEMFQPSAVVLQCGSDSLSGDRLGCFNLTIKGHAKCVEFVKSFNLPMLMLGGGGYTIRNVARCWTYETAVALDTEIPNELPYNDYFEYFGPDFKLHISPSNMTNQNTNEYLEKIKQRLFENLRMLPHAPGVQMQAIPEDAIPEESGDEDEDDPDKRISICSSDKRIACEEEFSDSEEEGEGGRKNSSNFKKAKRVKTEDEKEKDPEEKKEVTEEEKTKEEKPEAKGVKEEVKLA

As usually defined, the IC50 is the concentration that gives 50% inhibition. For `CC(C)(C)OC(=O)NC1CCCCC1NC(=O)c1ccc(-c2noc(C(F)(F)F)n2)cc1` (stereo not drawn) [Example 60, tert-butyl (2-(4-(5-(trifluoromethyl)-1,2,4-oxadiazol-3-yl)benzamido)cyclohexyl)carbamate], the IC50 was 2.5 µM on Human recombinant HDAC4, more than 10 µM in experiment [1] and 2.2 µM in experiment [2].

Consider `O=C(c1ccc(-c2noc(C(F)(F)F)n2)cc1)N1CCCCC1` [Example 33, Piperidin-1-yl(4-(5-(trifluoromethyl)-1,2,4-oxadiazol-3-yl)phenyl)methanone], for which the IC50 at Human recombinant HDAC4 was 0.4 µM; in experiment [1], more than 10 µM; in experiment [2], more than 10 µM.

Turning to `C[C@H](CN1CCCCC1)NC(=O)c1ccc(-c2noc(C(F)(F)F)n2)cc1` [Example 131, (R)—N-(1-(piperidin-1-yl)propan-2-yl)-4-(5-(trifluoromethyl)-1,2,4-oxadiazol-3-yl)benzamide], the values for the IC50 (on Human recombinant HDAC4; in experiment [1]; in experiment [2]) were 0.01 µM, 6.55 µM and 7.5 µM, respectively.

`CCN(CC)C[C@@H](C)NC(=O)c1ccc(-c2noc(C(F)(F)F)n2)cc1` [Example 132, (R)—N-(1-(diethylamino)propan-2-yl)-4-(5-(trifluoromethyl)-1,2,4-oxadiazol-3-yl)benzamide]: the IC50 at Human recombinant HDAC4 was determined as 0.005 µM; in experiment [1], 9.2 µM; in experiment [2] it was 8.3 µM.

With `O=C(Nc1cccnc1)c1ccc(-c2noc(C(F)(F)F)n2)cc1` [Example 48, N-(ppyridin-3-yl)-4-(5-(trifluoromethyl)-1,2,4-oxadiazol-3-yl)benzamide], the results for the IC50 (at Human recombinant HDAC4; in experiment [1]; in experiment [2]) were 0.14 µM, more than 10 µM and 4.8 µM, respectively.

As to `CN(C)CCN(C)C(=O)c1ccc(-c2noc(C(F)(F)F)n2)cc1` [Example 37, N-(2-(dimethylamino)ethyl)-N-methyl-4-(5-(trifluoromethyl)-1,2,4-oxadiazol-3-yl)benzamide], the results for the IC50 (on Human recombinant HDAC4; in experiment [1]; in experiment [2]) were 0.34 µM, more than 10 µM and more than 10 µM, respectively.

Take `CCCN(C)C[C@@H](C)NC(=O)c1ccc(-c2noc(C(F)(F)F)n2)cc1` [Example 139, (R)—N-(1-(methyl(propyl)amino)propan-2-yl)-4-(5-(trifluoromethyl)-1,2,4-oxadiazol-3-yl)benzamide]: the IC50 at Human recombinant HDAC4 worked out at 0.001 µM; in experiment [1], 4 µM; in experiment [2] it was 9.6 µM.

Turning to `CN(C)CCCN(C)S(=O)(=O)c1ccc(-c2noc(C(F)(F)F)n2)cc1` [Example 112, N-(3-(dimethylamino)propyl)-N-methyl-4-(5-(trifluoromethyl)-1,2,4-oxadiazol-3-yl)benzenesulfonamide], the IC50 is 0.82 µM on Human recombinant HDAC4, more than 10 µM in experiment [1] and 9.1 µM in experiment [2].

For the compound `CC(C)N(C)C[C@@H](C)NC(=O)c1ccc(-c2noc(C(F)(F)F)n2)cc1` [Example 138, (R)—N-(1-(isopropyl(methyl)amino)propan-2-yl)-4-(5-(trifluoromethyl)-1,2,4-oxadiazol-3-yl)benzamide], the IC50 at Human recombinant HDAC4 was 0.0045 µM; in experiment [1] it was more than 10 µM; in experiment [2] it was more than 10 µM.

For `CN1CCC(NC(=O)c2ccc(-c3noc(C(F)(F)F)n3)cc2)CC1` [Example 38, N-(1-methylpiperidin-4-yl)-4-(5-(trifluoromethyl)-1,2,4-oxadiazol-3-yl)benzamide], the results for the concentration for half-maximal inhibition (IC50) (at Human recombinant HDAC4; in experiment [1]; in experiment [2]) were 0.3 µM, more than 10 µM and 3.9 µM, respectively.

Consider `O=C(Nc1ccnc(C(F)(F)F)c1)c1ccc(-c2noc(C(F)(F)F)n2)cc1` [Example 74, 4-(5-(Trifluoromethyl)-1,2,4-oxadiazol-3-yl)-N-(2-(trifluoromethyl)pyridin-4-yl)benzamide], for which the IC50 on Human recombinant HDAC4 is 0.19 µM; in experiment [1], more than 10 µM; in experiment [2] it was 8.6 µM.

`O=C(NC1CCCC1)c1ccc(-c2noc(C(F)(F)F)n2)cc1` [Example 29, N-cyclopentyl-4-(5-(trifluoromethyl)-1,2,4-oxadiazol-3-yl)benzamide]: the IC50 at Human recombinant HDAC4 is 1.2 µM; in experiment [1] it was more than 10 µM; in experiment [2] it was more than 10 µM.

For `CC(C)CNC(=O)c1ccc(-c2noc(C(F)(F)F)n2)cc1` [Example 27, N-isobutyl-4-(5-(trifluoromethyl)-1,2,4-oxadiazol-3-yl)benzamide], the IC50 on Human recombinant HDAC4 was 1.2 µM; in experiment [1] it was more than 10 µM; in experiment [2] it was more than 10 µM.

In the case of `CN(C)CCNC(=O)c1ccc(-c2noc(C(F)(F)F)n2)cc1` [Example 31, N-(2-(dimethylamino)ethyl)-4-(5-(trifluoromethyl)-1,2,4-oxadiazol-3-yl)benzamide], the IC50 was found to be 0.08 µM at Human recombinant HDAC4, 7.6 µM in experiment [1] and 7.05 µM in experiment [2].

Turning to `O=C(N[C@@H]1CCNC1)c1ccc(-c2noc(C(F)(F)F)n2)cc1F` [Example 95, (R)-2-fluoro-N-(pyyrrolidin-3-yl)-4-(5-(trifluoromethyl)-1,2,4-oxadiazol-3-yl)benzamide], the figures for the IC50 (on Human recombinant HDAC4; in experiment [1]; in experiment [2]) were 0.16 µM, more than 10 µM and 6.9 µM, respectively.

Regarding `O=C(NC1CCNCC1)c1ccc(-c2noc(C(F)(F)F)n2)cc1` [Example 76, N-(piperidin-4-yl)-4-(5-(trifluoromethyl)-1,2,4-oxadiazol-3-yl)benzamide], the IC50 on Human recombinant HDAC4 is 0.15 µM; in experiment [1], more than 10 µM; in experiment [2] it was 3.9 µM.

Regarding `CC(C)(C)OC(=O)N1CCC(NC(=O)c2ccc(-c3noc(C(F)(F)F)n3)cc2)CC1` [Example 59, 4-[4-(5-trifluoromethyl-[1,2,4]oxadiazol-3-yl)-benzoylamino]-piperidine-1-carboxylic acid tert-butyl ester], the values for the IC50 (on Human recombinant HDAC4; in experiment [1]; in experiment [2]) were 1.4 µM, more than 10 µM and more than 10 µM, respectively.

As to `CN(C)C(=O)CNC(=O)c1ccc(-c2noc(C(F)(F)F)n2)cc1` [Example 52, N-(2-(dimethylamino)-2-oxoethyl)-4-(5-(trifluoromethyl)-1,2,4-oxadiazol-3-yl)benzamide], the IC50 was 3.2 µM at Human recombinant HDAC4, more than 10 µM in experiment [1] and more than 10 µM in experiment [2].

`CN1CCN(C(=O)c2ccc(-c3noc(C(F)(F)F)n3)cc2)CC1` [Example 36, (4-methylpiperazin-1-yl)(4-(5-(trifluoromethyl)-1,2,4-oxadiazol-3-yl)phenvyl)methanone]: the values for the IC50 (on Human recombinant HDAC4; in experiment [1]; in experiment [2]) were 2.7 µM, more than 10 µM and more than 10 µM, respectively.

As for `O=C(NC1CCCCC1O)c1ccc(-c2noc(C(F)(F)F)n2)cc1` (stereo not drawn) [Example 61, N-(2-hydroxycyclohexyl)-4-(5-(trifluoromethyl)-1,2,4-oxadiazol-3-yl)benzamide], the IC50 was 0.79 µM on Human recombinant HDAC4, more than 10 µM in experiment [1] and 7.1 µM in experiment [2].

On to `CN(C)C(=O)Cc1ccc(-c2noc(C(F)(F)F)n2)cc1` [Example 4, N,N-Dimethyl-2-[4-(5-trifluoromethyl-[1,2,4]oxadiazol-3-yl)-phenyl]-acetamide], for which the IC50 is 0.62 µM on Human recombinant HDAC4, more than 10 µM in experiment [1] and 7.9 µM in experiment [2].

With `CCN(C[C@@H](C)NC(=O)c1ccc(-c2noc(C(F)(F)F)n2)cc1F)C(C)C` [Example 152, (R)—N-(1-(ethyl(isopropyl)amino)propan-2-yl)-2-fluoro-4-(5-(trifluoromethyl)-1,2,4-oxadiazol-3-yl)benzamide], the figures for the IC50 (on Human recombinant HDAC4; in experiment [1]; in experiment [2]) were 0.0084 µM, more than 10 µM and 2.4 µM, respectively.
